Experimental data: patent US20200247897A1, “THERAPEUTIC ANTIBODIES BASED ON MUTATED IGG HEXAMERS” (GENMAB B.V., priority 2017, published 2020)

What was measured:
[1] = test system: colon, pancreatic, gastric, lung and skin cancer cell lines; test: 3-days CellTiter-Glo viability assay, panel of different human cancer cell lines; assay type: cell-based; conditions: 133 nM; 11 cell lines (Example 41)
[2] = test system: BxPC-3 pancreatic cancer cells; test: 3-days CellTiter-Glo viability assay, BxPC-3; conditions: Z-VAD-FMK 5 μM

TRAIL: natural DR5 ligand, recombinant human TRAIL/APO-2L
killing of human cancer cell lines [1]: show killing of human cancer target cell lines originating from different indications | viability of BxPC-3 cells in presence of pan-caspase inhibitor Z-VAD-FMK [2]: inhibited in the presence of pan-caspase inhibitor Z-VAD-FMK
